In one data set the target is T1, OAT1 (Homo sapiens, UniProt Q4U2R8).
T1 construct: host or cells: HEK-293T, transient transfection
T1 sequence (Q4U2R8 1-563): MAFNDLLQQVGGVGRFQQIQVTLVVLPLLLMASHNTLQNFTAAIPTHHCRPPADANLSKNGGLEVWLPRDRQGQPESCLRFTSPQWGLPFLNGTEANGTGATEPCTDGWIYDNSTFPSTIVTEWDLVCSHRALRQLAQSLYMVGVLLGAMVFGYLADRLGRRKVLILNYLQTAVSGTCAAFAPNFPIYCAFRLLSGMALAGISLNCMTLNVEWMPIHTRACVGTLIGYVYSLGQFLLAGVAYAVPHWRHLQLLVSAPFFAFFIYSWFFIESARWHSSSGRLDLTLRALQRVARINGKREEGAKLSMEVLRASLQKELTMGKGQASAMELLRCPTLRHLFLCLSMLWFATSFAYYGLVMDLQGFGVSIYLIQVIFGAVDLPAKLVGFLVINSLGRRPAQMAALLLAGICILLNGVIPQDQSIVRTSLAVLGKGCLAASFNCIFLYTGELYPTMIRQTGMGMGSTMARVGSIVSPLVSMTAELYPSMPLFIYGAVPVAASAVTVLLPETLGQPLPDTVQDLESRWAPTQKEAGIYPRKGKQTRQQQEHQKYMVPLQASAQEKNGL
Description: OAT1 6-carboxyfluorescein transport in transfected HEK-293T cells. The class given is cell-based. The following applies: 5 μM 6-carboxyfluorescein, 2 min; mean ± SEM; read-out: Potency (IC50) against OAT1. As for the experimental part:
The cells were washed three times in a buffer containing 125 mM NaCl and 25 mM HEPES, pH 7.3, and then lysed in 1 M sodium hydroxide prior to fluorescence measurement.

For data set [1] the following is noted: cited from earlier work.
For the next data set, the system named is OAT3. Also noted: method as in earlier work. The following applies: oocytes, 2 µM 3H-estrone sulfate, 60 min; shown in Figure S1; ref 41 (Shen et al.); read-out: IC50 against OAT3; cited from earlier work.
A further data set concerns the target T2, GLUT9 (SLC2A9v2/GLUT9ΔN) (Homo sapiens, UniProt Q9NRM0).
T2 construct: expressed in transfected cells
T2 sequence (Q9NRM0 1-511 isoform Q9NRM0-2): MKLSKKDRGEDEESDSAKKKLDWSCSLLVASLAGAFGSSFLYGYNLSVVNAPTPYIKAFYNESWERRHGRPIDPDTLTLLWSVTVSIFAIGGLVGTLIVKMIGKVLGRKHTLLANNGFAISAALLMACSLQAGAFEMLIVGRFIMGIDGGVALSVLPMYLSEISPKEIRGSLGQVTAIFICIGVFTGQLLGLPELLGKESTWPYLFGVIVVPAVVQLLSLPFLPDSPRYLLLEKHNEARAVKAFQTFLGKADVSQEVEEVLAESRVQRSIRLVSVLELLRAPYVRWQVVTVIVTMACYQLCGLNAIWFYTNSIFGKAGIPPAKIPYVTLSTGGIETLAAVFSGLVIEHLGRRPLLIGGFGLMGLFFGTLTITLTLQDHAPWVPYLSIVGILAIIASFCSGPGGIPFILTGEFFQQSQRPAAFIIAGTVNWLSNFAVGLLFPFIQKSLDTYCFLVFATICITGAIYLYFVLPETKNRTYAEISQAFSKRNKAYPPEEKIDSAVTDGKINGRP
Description: GLUT9 urate transport in cRNA-injected oocytes. The class given is cell-based. How it is done:
For GLUT9, SLC2A9v2/GLUT9ΔN in pCMV6/neo was linearized with XmaI and NotI and cRNA transcribed using the mMessage mMachine T7 kit (Ambion). Oocytes were injected with either water or 25 ng cRNA and incubated for 3 to 5 days in ND96 buffer. For each point, 10 oocytes were incubated with 100 μM ^14C-uric acid in ND96 buffer with and without test compounds at room temperature for 60 minutes. The oocytes were then washed three to four times in ice-cold ND96 buffer and lysed prior to scintillation counting.

For data set [2] the following is noted: cited from earlier work. This is another data set of the same source.
Data set [3] is described as follows: Lesinurad plasma pharmacokinetics and urinary excretion in the clinic. The class given is in vivo, human. The following applies: single 200-mg dose. As for the experimental part:
In each treatment period, plasma samples were collected within 30 minutes before dosing (pre-dose) and at 0.5, 1, 1.5, 2, 3, 4, 5, 6, 8, 10, 12, 16, 24, 30, 36, and 48 hours post-dose. Urine (total catch) was collected pretreatment at hours –24 to –18, –18 to –12, and –12 to 0, and post-dose at hours 0 to 6, 6 to 12, 12 to 24, 24 to 30, 30 to 36, and 36 to 48.
After protein precipitation of the samples, lesinurad levels in plasma and urine were measured at Ardea Biosciences by quantitative high performance liquid chromatography with tandem mass spectrometry. […] The parameters from individual profiles of lesinurad were determined using noncompartmental methods. Urine samples were analyzed for uric acid and creatinine using enzymatic methods by Covance Clinical Research Unit (Dallas, TX, USA), and pharmacodynamic (PD) parameters were determined by Covance Clinical Research Unit using SAS, Version 8.2 (SAS Institute Inc). Calculated PD parameters for uric acid included urinary excretion, renal clearance, and FEUA. FEUA was calculated by dividing the uric acid clearance by the creatinine clearance.

The next data set addresses T3, PPARγ (Homo sapiens, UniProt P37231).
T3 sequence (P37231 238-505 limits assumed): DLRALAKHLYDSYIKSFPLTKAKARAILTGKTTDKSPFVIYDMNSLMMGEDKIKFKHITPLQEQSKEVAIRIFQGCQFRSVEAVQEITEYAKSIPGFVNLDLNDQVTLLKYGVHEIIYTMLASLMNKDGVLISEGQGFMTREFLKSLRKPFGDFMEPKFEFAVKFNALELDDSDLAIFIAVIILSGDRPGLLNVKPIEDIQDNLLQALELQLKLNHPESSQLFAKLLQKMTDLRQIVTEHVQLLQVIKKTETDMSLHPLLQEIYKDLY
Description: Human PPARγ luciferase reporter assay. The following applies: reporter cells, 24 hours, up to 100 μM. It counts as cell-based. How it is done: This assay was performed using nonhuman mammalian cells engineered to provide a PPARγ-responsive luciferase reporter gene and constitutive, high levels of PPARγ (Indigo Biosciences catalog number IB00101). Cells were incubated with compounds for 24 hours, and then luciferase activity was measured using a luminometer. Agonist activity was reported as fold activation over a vehicle control. A positive control agonist, rosiglitazone, was included in each batch run to verify cell integrity.
(A reporter such as luciferase makes a cellular process visible.)

“Also recorded” adds a separate entry of the source.

In the case of `O=C(O)CSc1nnc(Br)n1-c1ccc(C2CC2)c2ccccc12` [Lesinurad, 2-((5-bromo-4-(4-cyclopropylnaphthalen-1-yl)-4H-1,2,4-triazol-3-yl)thio) acetic acid], the IC50 on OAT1 was 3.9 ± 0.94 µM; in the data set on OAT3 it was 3.54 µM; at GLUT9 (SLC2A9v2/GLUT9ΔN) (100 μM 14C-uric acid, 60 min, read-out: Potency against GLUT9) it was greater than 100 µM. In data set [1], the “Fraction of compound excreted via urine” value is reported as “approximately one third”. The “Effect on GLUT9 urate transport” value on GLUT9 (SLC2A9v2/GLUT9ΔN) (compound at up to 100 μM) is “no effect; also recorded: does not inhibit”. In data set [2], the Plasma protein binding is 98.4%. In data set [3], the Maximal plasma concentration stood at 29 µM. In data set [3] (from Cmax and 98.4 % protein binding), the “Predicted maximal plasma-free concentration” value was 0.46 µM. Also, the PPARγ activation entry at PPARγ is reported as “no PPARγ agonism”.

The values are drawn from paper PMC5048659 (Arthritis Research & Therapy, 2016).
